Data set [1] has as its target Histone deacetylase (HDAC1 and HDAC2) (Homo sapiens) (UniProt Q13547+Q92769). Description: Inhibition of HDAC1/HDAC2 in human HeLa cells assessed as reduction in acetylated histone levels at 20 uM incubated for 24 hrs by immunofluorescence assay. The data set is classed as cell-based.
Data set [2] has as its target T1, Protein deacetylase HDAC6 (Homo sapiens, UniProt Q9UBN7).
T1 sequence (Q9UBN7 whole entry): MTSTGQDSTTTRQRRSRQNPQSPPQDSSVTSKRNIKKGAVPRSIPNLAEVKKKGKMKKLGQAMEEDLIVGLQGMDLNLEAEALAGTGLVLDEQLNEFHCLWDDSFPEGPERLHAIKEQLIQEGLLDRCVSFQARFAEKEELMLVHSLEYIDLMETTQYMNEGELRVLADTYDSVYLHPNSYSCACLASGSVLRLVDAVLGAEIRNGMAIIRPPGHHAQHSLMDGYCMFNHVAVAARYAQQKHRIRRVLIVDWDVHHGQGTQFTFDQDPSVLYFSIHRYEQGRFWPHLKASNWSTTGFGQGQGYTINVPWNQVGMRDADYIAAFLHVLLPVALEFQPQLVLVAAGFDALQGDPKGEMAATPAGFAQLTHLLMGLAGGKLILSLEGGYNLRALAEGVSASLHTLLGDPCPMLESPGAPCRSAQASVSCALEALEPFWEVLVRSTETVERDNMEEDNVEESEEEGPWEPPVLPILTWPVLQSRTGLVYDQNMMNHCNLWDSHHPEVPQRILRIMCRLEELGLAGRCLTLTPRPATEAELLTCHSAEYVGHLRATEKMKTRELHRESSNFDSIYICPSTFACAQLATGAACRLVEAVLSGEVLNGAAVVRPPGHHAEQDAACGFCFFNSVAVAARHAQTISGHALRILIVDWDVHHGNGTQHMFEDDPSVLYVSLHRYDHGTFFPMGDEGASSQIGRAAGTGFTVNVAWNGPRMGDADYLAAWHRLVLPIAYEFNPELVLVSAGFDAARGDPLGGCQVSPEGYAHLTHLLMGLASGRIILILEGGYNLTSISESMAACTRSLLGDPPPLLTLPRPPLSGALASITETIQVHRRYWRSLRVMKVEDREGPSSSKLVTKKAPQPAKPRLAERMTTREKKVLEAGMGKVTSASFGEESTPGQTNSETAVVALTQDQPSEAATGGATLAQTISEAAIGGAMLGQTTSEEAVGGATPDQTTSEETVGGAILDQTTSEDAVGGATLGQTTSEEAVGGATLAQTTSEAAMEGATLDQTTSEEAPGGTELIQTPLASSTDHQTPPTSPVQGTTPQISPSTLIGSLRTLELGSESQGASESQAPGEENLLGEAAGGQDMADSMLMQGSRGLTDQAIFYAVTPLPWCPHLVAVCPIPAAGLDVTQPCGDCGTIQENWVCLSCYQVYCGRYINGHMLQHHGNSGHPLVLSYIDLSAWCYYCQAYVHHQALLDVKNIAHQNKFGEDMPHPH
Briefly: Inhibition of HDAC6 in human HeLa cells assessed as reduction in K40 hyperacetylation of alpha-tubulin incubated for 6 hrs by immunofluorescence assay. The data set is classed as cell-based.

In data set [3] the test system is HeLa. Description: Selectivity index, ratio of IC50 for HDAC1/HDAC2 in human HeLa cells nuclear extracts to IC50 for recombinant N-GST-tagged HDAC6 (unknown origin). It counts as cell-based.
In data set [4] the target is T1, Protein deacetylase HDAC6. Description: Inhibition of recombinant N-GST-tagged HDAC6 (unknown origin) assessed as reduction in deacetylation of Ac-Arg-Gly-Lys(Ac)-AMC substrate by fluorescence assay.
The target in data set [5] is T2, Polyamine deacetylase HDAC10 (Homo sapiens, UniProt Q969S8).
T2 sequence (Q969S8 whole entry): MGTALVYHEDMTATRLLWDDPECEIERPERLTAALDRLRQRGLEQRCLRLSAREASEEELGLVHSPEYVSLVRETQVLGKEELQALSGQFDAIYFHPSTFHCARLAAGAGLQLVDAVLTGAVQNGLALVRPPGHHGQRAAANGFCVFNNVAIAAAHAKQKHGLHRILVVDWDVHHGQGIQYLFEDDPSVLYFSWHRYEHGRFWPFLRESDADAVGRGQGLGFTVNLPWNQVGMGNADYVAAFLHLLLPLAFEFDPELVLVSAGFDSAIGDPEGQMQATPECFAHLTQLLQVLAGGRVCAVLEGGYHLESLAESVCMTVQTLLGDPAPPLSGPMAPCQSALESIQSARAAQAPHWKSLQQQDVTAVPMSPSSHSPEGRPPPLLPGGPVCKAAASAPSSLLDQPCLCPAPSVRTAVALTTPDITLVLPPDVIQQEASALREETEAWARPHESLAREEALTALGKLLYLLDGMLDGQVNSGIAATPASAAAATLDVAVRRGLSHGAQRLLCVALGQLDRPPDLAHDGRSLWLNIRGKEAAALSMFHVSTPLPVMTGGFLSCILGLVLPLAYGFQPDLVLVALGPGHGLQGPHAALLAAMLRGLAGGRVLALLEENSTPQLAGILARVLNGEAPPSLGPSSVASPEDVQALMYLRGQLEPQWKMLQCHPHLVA
Description: Inhibition of N-terminal GST-tagged human HDAC10 (1 to 481 residues) using Arg-His-Lys-Lys(Ac) substrate incubated for 2 hrs by fluorescence assay.

Data set [6] concerns the target Histone deacetylase 5 (Homo sapiens, UniProt Q9UQL6).
Data set [7] deals with Histone deacetylase 2 (Homo sapiens, UniProt Q92769).
Data set [8] is described as follows: Aqueous solubility in pH 6.8 buffer solution. The data set is classed as physicochemical.
Data set [9] deals with T3, Histone deacetylase 8 (Homo sapiens, UniProt Q9BY41).
T3 sequence (Q9BY41 whole entry): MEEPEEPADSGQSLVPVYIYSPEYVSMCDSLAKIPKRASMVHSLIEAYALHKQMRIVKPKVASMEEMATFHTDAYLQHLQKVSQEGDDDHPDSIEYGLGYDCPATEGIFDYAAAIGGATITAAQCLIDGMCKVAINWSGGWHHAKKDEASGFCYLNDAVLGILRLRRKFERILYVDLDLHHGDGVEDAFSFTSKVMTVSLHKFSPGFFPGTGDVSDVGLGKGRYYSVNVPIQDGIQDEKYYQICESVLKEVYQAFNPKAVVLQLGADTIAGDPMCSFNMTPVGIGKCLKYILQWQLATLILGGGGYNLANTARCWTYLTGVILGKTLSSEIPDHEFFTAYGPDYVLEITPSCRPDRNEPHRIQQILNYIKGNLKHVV
Description: Inhibition of full length C-terminal 6x-His tagged human HDAC8 using Arg-His-Lys(Ac)-Lys(Ac) substrate incubated for 2 hrs by fluorescence assay.

Data set [10] in a line: Permeability in human Caco2 cells at pH 7.4. The data set is classed as ADME, cell-based. The settings on record: Caco-2, pH 7.4, read-out: permeability.
For data set [11], the target named is Histone deacetylase 4 (Homo sapiens, UniProt P56524).
Data set [12] has as its target Histone deacetylase 3 (Homo sapiens, UniProt O15379). Briefly: Inhibition of full length C-terminal 6x-His tagged human HDAC3 using Arg-His-Lys-Lys(Ac) substrate incubated for 2 hrs by fluorescence assay.
Data set [13] addresses T4, Histone deacetylase 11 (Homo sapiens, UniProt Q96DB2).
T4 sequence (Q96DB2 whole entry): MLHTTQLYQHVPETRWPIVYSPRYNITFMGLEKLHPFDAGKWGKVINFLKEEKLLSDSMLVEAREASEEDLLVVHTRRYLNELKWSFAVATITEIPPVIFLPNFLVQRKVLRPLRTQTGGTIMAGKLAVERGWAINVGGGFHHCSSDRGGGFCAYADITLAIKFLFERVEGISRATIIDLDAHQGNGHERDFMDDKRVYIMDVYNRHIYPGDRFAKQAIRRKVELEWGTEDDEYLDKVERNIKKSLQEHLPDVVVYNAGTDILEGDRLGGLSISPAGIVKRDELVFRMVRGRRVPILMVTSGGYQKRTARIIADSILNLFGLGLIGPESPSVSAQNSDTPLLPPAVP
Briefly: Inhibition of full length N-terminal GST-tagged human HDAC11 using Arg-His-Lys-Lys(Ac) substrate incubated for 2 hrs by fluorescence assay.

The target in data set [14] is Histone deacetylase 1 (Homo sapiens, UniProt Q13547). Briefly: Inhibition of full length GST-tagged human HDAC1 using Arg-His-Lys-Lys(Ac) substrate incubated for 2 hrs by fluorescence assay.

18 compounds from ChEMBL document CHEMBL3351349, “Histone deacetylase inhibitors derived from 1,2,3,4-tetrahydropyrrolo[1,2-a]pyrazine and related heterocycles selective for the HDAC6 isoform” (Bioorg Med Chem Lett, 2014) can be followed below.

Structures are written as SMILES.

Histone deacetylase (HDAC1 and HDAC2) (Homo sapiens), sequence (Q13547 whole entry, looked up): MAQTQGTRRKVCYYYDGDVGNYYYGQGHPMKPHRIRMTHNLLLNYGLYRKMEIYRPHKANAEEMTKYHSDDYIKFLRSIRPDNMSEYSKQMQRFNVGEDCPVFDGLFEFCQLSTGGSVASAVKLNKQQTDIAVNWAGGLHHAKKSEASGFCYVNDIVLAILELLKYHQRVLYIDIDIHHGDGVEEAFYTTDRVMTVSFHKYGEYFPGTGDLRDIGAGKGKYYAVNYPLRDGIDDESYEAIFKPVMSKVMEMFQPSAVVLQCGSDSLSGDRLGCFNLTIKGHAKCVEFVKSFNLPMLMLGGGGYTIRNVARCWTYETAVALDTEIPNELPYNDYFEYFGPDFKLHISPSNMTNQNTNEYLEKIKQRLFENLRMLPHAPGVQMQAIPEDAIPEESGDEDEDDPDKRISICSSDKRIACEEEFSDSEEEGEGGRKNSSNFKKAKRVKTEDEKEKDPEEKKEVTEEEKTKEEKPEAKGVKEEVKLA
Histone deacetylase (HDAC1 and HDAC2) (Homo sapiens), sequence (Q92769 whole entry, looked up): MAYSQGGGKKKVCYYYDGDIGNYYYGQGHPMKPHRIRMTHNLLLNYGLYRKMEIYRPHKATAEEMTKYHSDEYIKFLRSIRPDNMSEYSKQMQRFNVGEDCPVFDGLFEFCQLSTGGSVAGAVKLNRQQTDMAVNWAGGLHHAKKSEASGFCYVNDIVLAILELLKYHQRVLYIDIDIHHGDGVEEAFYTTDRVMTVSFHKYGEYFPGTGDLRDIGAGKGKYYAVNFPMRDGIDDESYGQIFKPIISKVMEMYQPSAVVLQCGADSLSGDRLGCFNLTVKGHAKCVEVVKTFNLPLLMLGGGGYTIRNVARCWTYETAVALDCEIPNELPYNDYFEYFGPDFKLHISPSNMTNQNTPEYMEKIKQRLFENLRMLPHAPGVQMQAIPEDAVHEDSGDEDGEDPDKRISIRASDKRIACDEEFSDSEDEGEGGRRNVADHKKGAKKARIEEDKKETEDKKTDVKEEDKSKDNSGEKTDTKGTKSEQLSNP
Histone deacetylase 4, sequence (P56524 whole entry): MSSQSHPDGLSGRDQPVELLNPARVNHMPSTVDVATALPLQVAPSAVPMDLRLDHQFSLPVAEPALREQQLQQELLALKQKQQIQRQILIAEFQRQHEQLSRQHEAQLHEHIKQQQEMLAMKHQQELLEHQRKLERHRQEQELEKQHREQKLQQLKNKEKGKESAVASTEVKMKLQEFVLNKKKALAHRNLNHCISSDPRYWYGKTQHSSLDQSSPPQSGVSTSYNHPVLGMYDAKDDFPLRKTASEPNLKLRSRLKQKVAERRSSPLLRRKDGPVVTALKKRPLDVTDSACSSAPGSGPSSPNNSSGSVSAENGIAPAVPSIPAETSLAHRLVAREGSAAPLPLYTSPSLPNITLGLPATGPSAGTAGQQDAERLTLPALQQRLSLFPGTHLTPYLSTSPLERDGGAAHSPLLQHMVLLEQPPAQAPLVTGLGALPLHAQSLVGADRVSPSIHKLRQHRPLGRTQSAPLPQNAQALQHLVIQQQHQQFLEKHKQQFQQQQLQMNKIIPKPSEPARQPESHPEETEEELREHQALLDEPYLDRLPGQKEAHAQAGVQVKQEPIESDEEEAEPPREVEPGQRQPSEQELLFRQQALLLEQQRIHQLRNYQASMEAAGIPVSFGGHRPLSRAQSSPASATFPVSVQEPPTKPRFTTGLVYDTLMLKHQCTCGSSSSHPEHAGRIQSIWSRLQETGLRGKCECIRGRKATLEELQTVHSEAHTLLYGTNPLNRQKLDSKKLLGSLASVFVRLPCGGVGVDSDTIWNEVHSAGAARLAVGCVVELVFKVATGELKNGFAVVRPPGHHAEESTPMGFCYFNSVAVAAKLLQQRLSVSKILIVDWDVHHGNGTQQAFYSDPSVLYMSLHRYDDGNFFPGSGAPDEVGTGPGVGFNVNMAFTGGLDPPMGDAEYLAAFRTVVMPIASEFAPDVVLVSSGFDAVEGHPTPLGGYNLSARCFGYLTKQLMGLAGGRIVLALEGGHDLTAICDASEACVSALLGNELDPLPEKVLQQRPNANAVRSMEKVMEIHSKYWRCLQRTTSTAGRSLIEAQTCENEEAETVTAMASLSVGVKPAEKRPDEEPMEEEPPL
Histone deacetylase 1, sequence (Q13547 whole entry): as the sequence (Q13547 whole entry, looked up) above
Histone deacetylase 2, sequence (Q92769 whole entry): as the sequence (Q92769 whole entry, looked up) above
Histone deacetylase 5, sequence (Q9UQL6 whole entry): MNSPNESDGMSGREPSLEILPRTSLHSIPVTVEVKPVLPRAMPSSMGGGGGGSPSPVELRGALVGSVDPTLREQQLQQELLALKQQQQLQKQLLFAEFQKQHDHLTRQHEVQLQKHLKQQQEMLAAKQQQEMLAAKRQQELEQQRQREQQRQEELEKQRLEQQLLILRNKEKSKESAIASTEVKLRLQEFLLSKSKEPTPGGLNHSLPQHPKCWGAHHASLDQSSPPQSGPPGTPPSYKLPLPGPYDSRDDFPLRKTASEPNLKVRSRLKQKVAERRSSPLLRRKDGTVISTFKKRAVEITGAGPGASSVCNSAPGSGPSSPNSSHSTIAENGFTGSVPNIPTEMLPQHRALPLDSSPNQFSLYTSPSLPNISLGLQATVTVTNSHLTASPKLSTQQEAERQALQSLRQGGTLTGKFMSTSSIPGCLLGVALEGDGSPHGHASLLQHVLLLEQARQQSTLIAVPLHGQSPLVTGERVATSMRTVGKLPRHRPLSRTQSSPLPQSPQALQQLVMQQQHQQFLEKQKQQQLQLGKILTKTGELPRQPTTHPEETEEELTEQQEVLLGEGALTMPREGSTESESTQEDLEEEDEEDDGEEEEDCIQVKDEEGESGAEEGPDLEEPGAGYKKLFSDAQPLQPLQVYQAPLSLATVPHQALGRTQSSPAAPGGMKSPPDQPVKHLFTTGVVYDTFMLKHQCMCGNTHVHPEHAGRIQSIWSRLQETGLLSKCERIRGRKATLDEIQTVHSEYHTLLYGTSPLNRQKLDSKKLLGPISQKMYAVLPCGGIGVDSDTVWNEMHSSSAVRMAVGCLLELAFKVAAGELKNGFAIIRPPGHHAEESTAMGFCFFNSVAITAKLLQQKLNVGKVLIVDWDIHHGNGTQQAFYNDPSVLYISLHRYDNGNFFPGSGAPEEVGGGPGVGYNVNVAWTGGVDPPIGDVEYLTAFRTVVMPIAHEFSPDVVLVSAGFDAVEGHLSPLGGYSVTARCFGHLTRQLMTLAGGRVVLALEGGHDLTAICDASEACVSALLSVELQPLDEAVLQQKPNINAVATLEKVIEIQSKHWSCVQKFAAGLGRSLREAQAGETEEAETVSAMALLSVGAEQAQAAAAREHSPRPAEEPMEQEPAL
Histone deacetylase 3, sequence (O15379 whole entry): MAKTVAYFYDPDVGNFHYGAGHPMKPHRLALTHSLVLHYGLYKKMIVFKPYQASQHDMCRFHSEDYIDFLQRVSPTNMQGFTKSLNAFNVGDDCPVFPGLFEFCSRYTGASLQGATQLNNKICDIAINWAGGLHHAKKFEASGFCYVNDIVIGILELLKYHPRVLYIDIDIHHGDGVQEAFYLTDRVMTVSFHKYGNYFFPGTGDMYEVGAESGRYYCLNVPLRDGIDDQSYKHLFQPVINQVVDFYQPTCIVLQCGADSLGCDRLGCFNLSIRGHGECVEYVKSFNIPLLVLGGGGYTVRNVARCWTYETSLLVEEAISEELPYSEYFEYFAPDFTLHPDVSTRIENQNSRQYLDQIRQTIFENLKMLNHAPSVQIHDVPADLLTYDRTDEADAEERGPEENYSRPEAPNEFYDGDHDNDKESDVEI

Take `O=C(NO)c1cn2c(n1)CN(C(=O)c1ccc(-c3ccccc3)cc1)CC2`: the inhibition in [1] was < 20%. The IC50 was 2100 nM in data set [2] and 87 nM in data set [4]. Also, the Ratio IC50 in [3] was 70.
Turning to `Cn1cccc1C(=O)N1CCn2nc(C(=O)NO)cc2C1`, the inhibition in [1] is < 20%. Moreover, the figures for the concentration for half-maximal inhibition (IC50) in data set [2] and in data set [4] were 2200 nM and 350 nM, respectively. In addition, the Ratio IC50 in [3] came out at 220.
Consider `O=C(NO)c1cc2n(c1)CCN(C(=O)c1ccc(-c3ccccc3)cc1)C2`, for which the inhibition in data set [1] was < 20%. In data set [3], the Ratio IC50 amounted to 44. Besides, the IC50 in data set [4] came out at 32 nM.
For the compound `COc1ccc(C(=O)N2CCn3cc(C(=O)NO)cc3C2)cc1`, the inhibition in data set [1] was < 20%. The IC50 in data set [2] stood at 100 nM; in [4], 43 nM. Further, the Ratio IC50 in data set [3] worked out at 130.
As to `O=C(NO)c1cn2c(n1)CN(C(=O)c1cc3ccccc3s1)CC2`, in [1], the inhibition is < 20%. Further, the Ratio IC50 in data set [3] worked out at 52. The IC50 in data set [4] was 64 nM.
Take `Cn1cc(C(=O)N2CCn3cc(C(=O)NO)cc3C2)c2ccccc21`: the inhibition in data set [1] was < 20%. In addition, in data set [3], the Ratio IC50 is 6.3. In addition, in [4], the IC50 came out at 190 nM.
Take `Cn1ccc2cc(C(=O)N3CCn4cc(C(=O)NO)cc4C3)ccc21`: the inhibition in data set [1] was < 20%. For the same compound, the half-inhibitory concentration (IC50) in [2] amounted to 140 nM; in data set [4], 85 nM. Also, the Ratio IC50 in [3] came out at 35.
Consider `Cn1c(C(=O)N2CCn3cc(C(=O)NO)cc3C2)cc(Cl)c1Cl`, for which the inhibition in data set [1] was < 20%. In addition, the figures for the half-maximal inhibitory concentration (IC50) in data set [2] and in data set [4] were 150 nM and 33 nM, respectively. Further, the Ratio IC50 in data set [3] turned out to be 100.
Take `Cn1cccc1C(=O)N1CCn2cc(C(=O)NO)nc2C1`: the inhibition in [1] was < 20%. Also, the Ratio IC50 in data set [3] was found to be 770. Moreover, the IC50 in data set [4] was 130 nM.
Take `Cn1cccc1C(=O)N1CCc2cc(C(=O)NO)ccc2C1`: the inhibition in [1] is < 20%. In addition, the Ratio IC50 in [3] is 500.
As to `O=C(NO)c1cc2n(c1)CCN(C(=O)C1CCCCC1)C2`, in data set [1], the inhibition is < 20%. For the same compound, the IC50 is 730 nM in [2] and 100 nM in [4]. The Ratio IC50 in data set [3] came out at 250.
`COc1ccc(C(=O)N2CCn3nc(C(=O)NO)cc3C2)cc1`: in data set [1], the inhibition is < 20%. Also, the Ratio IC50 in [3] came to 120. In addition, in data set [4], the IC50 worked out at 810 nM.
With `O=C(NO)c1cc2n(c1)CCN(C(=O)c1cc3ccccc3s1)C2`, the inhibition in [1] is < 20%. In addition, in data set [3], the Ratio IC50 turned out to be 14. The IC50 in data set [4] was determined as 39 nM.
For `O=C(NO)c1cc2n(c1)CCN(C(=O)c1cc3ccccc3[nH]1)C2` the same measures were < 20%, 24 and 280 nM.
For the compound `Cn1cccc1C(=O)N1CCn2cc(C(=O)NO)cc2C1`, the IC50 in [5] was 41000 nM; in data set [6], 29000 nM; in data set [7], 39000 nM; in data set [9], 3300 nM; in [11] it was > 50000 nM; in data set [12], 8500 nM. Moreover, the IC50 amounted to 69 nM in data set [2], 29000 nM in data set [13], 33 nM in data set [4] and 15000 nM in data set [14]. Also, the inhibition in data set [1] was < 20%. Besides, in [8], the solubility is > 200 µM. Further, the Papp in [10] was found to be 4.2 ×10⁻⁶ cm/s.
As to `O=C(NO)c1cc2n(c1)CCN(C(=O)c1cccs1)C2`, the inhibition in [1] is < 20%. In data set [3], the Ratio IC50 is 150. Also, in data set [4], the IC50 stood at 110 nM.
As for `Cn1cccc1C(=O)NCc1ccc(C(=O)NO)cc1`, in data set [1], the inhibition was < 20%. Besides, the Ratio IC50 in data set [3] was found to be 115.
Regarding `Cn1c(C(=O)N2CCn3nc(C(=O)NO)cc3C2)cc2ccccc21`, the inhibition in data set [1] is < 20%. The IC50 in data set [2] was 3500 nM; in [4] it was 76 nM. The Ratio IC50 in [3] came out at 66.
